Key:
[1] = biological target: T1, PCSK9 protein (Homo sapiens, UniProt Q8NBP7); experiment: Binding ability to PCSK9 protein (HTRF); conditions: PCSK9-His, Alexa Fluor 647 probe compound
T1 construct: purchased Sino biology (Sino Biological) 29698-H08H
Protocol: 1. Experimental objective: To detect the action of compounds to bind PCSK9 protein by an HTRF method.
3. Experimental data processing method: Four-parameter log(inhibitor) vs. response—Variable slope (four parameters) in XLit was used to perform non-linear fitting of the compound concentration and the corresponding inhibition rate, and IC50 was calculated.

[2] = system: PCSK9 secreted by HepG2 cells; experiment: Effect on the concentration of PCSK9 secreted by HepG2 cells (ELISA); assay type: cell-based; conditions: Homo sapiens, 48 hours, PCSK9 in culture medium by ELISA
Protocol: 1. Experimental objective: To detect the inhibitory effect of the compounds on PCSK9.
2. Experimental method: • 1) HepG2 cell strain was cultured in the complete culture medium at 37° C., 5% CO2 to 70-90% confluence. • 2) The cells were digested and resuspended in the experimental culture medium, inoculated at 25,000 cells/well/200 μL in a 96-well cell culture plate, and cultured at 37° C. and 5% CO2 for 20-24 hours. • 3) The culture medium was removed from the cell culture plate, and the cell culture plate was washed once by adding 200 ul of the experimental culture medium to each well. • 4) Preparation of positive control compound and compound to be tested: the positive control compound and the compound to be tested were diluted on the compound plate. • 5) The diluted compound was added to the cell culture plate at 250 μL per well and incubated at 37° C. and 5% CO2 for 48 hours. • 6) The cell culture medium was collected at 200 μL per well and cryopreserved at −80° C. for later use. • 7) A sample of the cell culture medium was taken from the −80° C. cryopreservation condition, dissolved, vortexed, and centrifuged for later use. • 8) Preparation of standard curve: corresponding volumes of Dilution buffer were successively added to respective standard tubes, and in the order of the concentrations of 10, 5, 2.5, 1.25, 0.625, 0.313, 0.16, 0 ng/mL, the standard was diluted in series by taking the corresponding volume from the original tube or the last concentration tube. • 9) Preparation of washing liquid: 10x Wash buffer was diluted into 1x with Milli-Q for later use. • 10) According to the standard curve wells and sample wells set according to a plate map, 100 μL/well of the corresponding standards and culture medium samples were added to the wells, with 2 replicate wells. A self-adhesive seal was applied, the plate was placed on a plate shaker at room temperature, gently shaken, uniformly mixed, and incubated for 1 hour. • 11) The plate was placed on the plate washer, the washing liquid was set to 350 μL per well, and the plate was washed 4 times repeatedly. • 12) 100 μL/well of an HRP-conjugated detection antibody was added, a self-adhesive seal was applied, and the plate was placed on the plate shaker, well mixed uniformly, and incubated for 1 hour. • 13) The plate was placed on the plate washer, the washing liquid was set to 350 μL per well, and the plate was washed 4 times repeatedly. • 14) 100 μL/well of Substrate reagent was added, and the plate was placed in the dark, applied with a self-adhesive seal, placed on the plate shaker, well mixed uniformly, and incubated for 10-20 minutes. • 15) 100 μL of Stop solution (1N H2SO4) was added to each well and mixed uniformly. • 16) The optical density (OD) value in each well was measured in sequence at a wavelength of 450 nm by the microplate reader. Detection was carried out within 30 min after the reaction was stopped.
3. Experimental data processing method: After the OD values were read by the microplate reader, the OD value of the 0-concentration standard in the standard group was subtracted from the OD values of the standards, control group, and samples to obtain the actual OD values for these wells. A standard curve was plotted with Graphpad and the concentration of the sample was calculated. If the dilution was performed during the sample detection, the calculated sample concentration was necessarily multiplied by the corresponding dilution ratio in the final calculation, which was the actual concentration of the sample. Inhibition rate=(actual concentration in control−actual concentration in sample)/actual concentration in control*100. According to the inhibition rates corresponding to the different concentrations, IC50 was derived by Graphpad.

[3] = Pharmacokinetic determination in mice (PO 5 mg/kg, IV 1 mg/kg); assay type: in vivo, C57BL/6J mice; conditions: male, C57BL/6J, mouse, plasma, C57 mice, PO administration, 5 mpk; for AUC(0-inf): read-out: Area under the curve AUC0-∞; for half-life: read-out: Half-life t1/2 (converted); for MRT: read-out: Mean residence time MRT; for Cmax: read-out: Plasma concentration Cmax; for Tmax: read-out: Time to peak tmax
Protocol: 1. Experimental objective: C57BL/6J mice were used as test animals to study the pharmacokinetic behavior of the compounds of the present disclosure in mice (plasma) after oral and intravenous administration.
2.2 Test animals: C57 mice, male, purchased from Shanghai Bk Lab Animal Co., Ltd., with animal production license number (SCXK (Shanghai) 2013-0006 N0.311620400001794).
2.3 Drug preparation: Preparation of oral drug: 10% Solutol HS15
10 g of Solutol HS15 solid was weighed, dissolved in 90 mL of pure water, uniformly mixed, stirred, and ultrasonically treated to form a clear solution. The compound of the present disclosure was weighed and dissolved in this solution, uniformly shaken, and ultrasonically treated for 15 minutes to obtain a colorless clear solution with a concentration of 0.5 mg/mL. Preparation of intravenous drug: 5% DMSO+10% Solutol HS15+85% PBS, the compound of the present disclosure was weighed, 5% DMSO was first added on the basis of the proportion relative to the total volume of administration, and the mixture was vortexed and ultrasonically treated for 2 min until it was completely dissolved; 10% of Solutol HS15 was then added, and the mixture was vortexed and ultrasonically treated for 2 min until it was completely dissolved; and finally, 85% of PBS was added, and the mixture was vortexed, ultrasonically treated for 5 min, and filtered through a 0.22 um filter membrane to obtain a colorless and transparent clear solution with a concentration of 0.2 mg/mL.
2.4 Administration: 3 male C57 mice were fasted overnight and then respectively administered PO at a dose of 5 mg/kg and a volume of 10 mL/kg. 3 male C57 mice were fasted overnight and then respectively administered IV at a dose of 1 mg/kg and a volume of 5 mL/kg.
2.5 Sample collection: Before and after administration of mice, 0.04 mL of blood was collected from the orbit at 0.083 (iv), 0.25, 0.5, 1, 2, 4, 8, and 24 hours, and placed in EDTA-K2 test tubes, which was centrifuged at 6000 rpm at 4° C. for 6 min to separate plasma which was stored at −80° C.; and the […] were fed 4 h after administration.
2.6 Determination results: The final determination results were obtained by using an LCMS/MS method.
3. Experimental results: The main pharmacokinetic parameters were calculated using WinNonlin 6.1.

T1 sequence (Q8NBP7 153-692): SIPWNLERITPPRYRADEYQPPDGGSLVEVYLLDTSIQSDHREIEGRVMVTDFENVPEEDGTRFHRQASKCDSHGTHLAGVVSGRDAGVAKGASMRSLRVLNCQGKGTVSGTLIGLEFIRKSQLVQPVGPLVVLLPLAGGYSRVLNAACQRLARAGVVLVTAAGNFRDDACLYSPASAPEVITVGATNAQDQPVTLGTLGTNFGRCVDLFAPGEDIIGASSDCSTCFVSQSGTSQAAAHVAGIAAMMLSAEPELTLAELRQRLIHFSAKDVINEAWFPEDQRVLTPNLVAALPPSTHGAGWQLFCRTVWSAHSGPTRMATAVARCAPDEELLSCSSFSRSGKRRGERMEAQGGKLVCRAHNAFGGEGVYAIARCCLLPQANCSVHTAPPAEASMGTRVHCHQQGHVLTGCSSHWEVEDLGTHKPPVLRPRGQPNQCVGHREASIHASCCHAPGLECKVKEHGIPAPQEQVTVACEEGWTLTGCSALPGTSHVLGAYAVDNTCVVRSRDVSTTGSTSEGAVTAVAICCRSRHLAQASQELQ

Structure (SMILES) | IC50 [1] | IC50 [2] | AUC(0-inf) [3] | half-life [3] | MRT [3] | Cmax [3] | Tmax [3]
Cc1cc2c(cn1)C(=O)N(c1ccc(N[C@H]3CC[C@H](Nc4nc5cc(C(F)(F)F)ccn5n4)C3)nc1)C2 [Example 89, 6-methyl-2-(6-(((1S,3S)-3-((7-(trifluoromethyl)-[1,2,4]triazolo[1,5-a]pyridin-2-yl)amino)cyclopentyl)amino)pyridin-3-yl)-1,2-dihydro-3H-pyrrolo[3,4-c]pyridin-3-one] | 10.5 nM | 4000 nM | 34300 ng·h/mL | 2.7 h | 3.1 h | 10300 ng/mL | 0.25 h
N#Cc1cnc2c(c1)C(=O)N(c1ccc(N[C@H]3CC[C@H](Nc4nc5cc(OC(F)F)ccn5n4)C3)nc1)C2 [Example 123] | 11.5 nM | 5200 nM | 62200 ng·h/mL | 2.4 h | 4.3 h | 9920 ng/mL | 2 h
Cc1ccc2c(n1)C(=O)N(c1ccc(N[C@H]3CC[C@H](Nc4nc5cc(C(F)(F)F)ccn5n4)C3)nc1)C2 [Example 91, 2-methyl-6-(6-(((1S,3S)-3-((7-(trifluoromethyl)-[1,2,4]triazolo[1,5-a]pyridin-2-yl)amino)cyclopentyl)amino)pyridin-3-yl)-5,6-dihydro-7H-pyrrolo[3,4-b]pyridin-7-one] | 10.4 nM | 12900 nM |  |  |  |  | 
O=C1c2ncc(F)cc2CN1c1cnc(N[C@H]2CC[C@H](Nc3nc4cc(C(F)(F)F)ccn4n3)C2)c(F)c1 [Example 145] | 10.6 nM | 2900 nM | 22600 ng·h/mL | 3.3 h | 3.1 h | 6310 ng/mL | 1 h
O=C1c2cc(F)ccc2CN1c1ccc(N[C@H]2CC[C@H](Nc3nc4cc(C(F)(F)F)ccn4n3)C2)nc1 [Example 83, 6-fluoro-2-(6-(((1S,3S)-3-((7-(trifluoromethyl)-[1,2,4]triazolo[1,5-a]pyridin-2-yl)amino)cyclopentyl)amino)pyridin-3-yl)isoindolin-1-one] | 11.5 nM | 1100 nM |  |  |  |  | 
N#Cc1cnc2c(c1)C(=O)N(c1cnc(N[C@H]3CC[C@H](Nc4nc5cc(C(F)(F)F)ccn5n4)C3)c(F)c1)C2 [Example 147] | 8.8 nM | 300 nM |  |  |  |  | 
CC(C)(O)c1ccn(-c2ccc(=O)n(-c3ccc(N[C@H]4CC[C@H](Nc5nc6cc(C(F)(F)F)ccn6n5)C4)nc3)c2)n1 [Example 79, 5-(3-(2-hydroxypropan-2-yl)-1H-pyrazol-1-yl)-6′-(((1S,3S)-3-((7-(trifluoromethyl)-[1,2,4]triazolo[1,5-a]pyridin-2-yl)amino)cyclopentyl)amino)-2H-[1,3′-bipyridine]-2-one] | 24.9 nM | 15100 nM |  |  |  |  | 
N#Cc1cnc2c(c1)C(=O)N(c1ccc(N[C@H]3CC[C@H](Nc4nc5cc(C(F)(F)F)ccn5n4)C3)nc1)C2 [Example 65, 5-carbonyl-6-(6-(((1S,3S)-3-((7-(trifluoromethyl)-[1,2,4]triazolo[1,5-a]pyridin-2-yl)amino)cyclopentyl)amino)pyridin-3-yl)-6,7-dihydro-5H-pyrrolo[3,4-b]pyridine-3-carbonitrile] | 13.9 nM | 12800 nM | 70000 ng·h/mL | 4 h | 5.8 h | 7870 ng/mL | 4 h
O=C1c2ccccc2CN1c1ccc(N[C@H]2CC[C@H](Nc3nc4cc(C(F)(F)F)ccn4n3)C2)nc1 [Example 84, 2-(6-(((1S,3S)-3-((7-(trifluoromethyl)-[1,2,4]triazolo[1,5-a]pyridin-2-yl)amino)cyclopentyl)amino)pyridin-3-yl)isoindolin-1-one] | 6.3 nM | 4700 nM |  |  |  |  | 
N#Cc1ccc2c(n1)CN(c1ccc(N[C@H]3CC[C@H](Nc4nc5cc(OC(F)F)ccn5n4)C3)nc1)C2=O [Example 132] | 10 nM | 6500 nM | 30600 ng·h/mL | 2.9 h | 3 h | 8570 ng/mL | 0.5 h
[2H]C1([2H])c2ncccc2C(=O)N1c1ccc(N[C@H]2CC[C@H](Nc3nc4cc(C(F)(F)F)ccn4n3)C2)nc1 [Example 114] | 8.9 nM | 14700 nM | 7230 ng·h/mL | 3.1 h | 3 h | 2350 ng/mL | 0.5 h
O=C1c2ccc(C(F)(F)F)nc2CN1c1ccc(N[C@H]2CC[C@H](Nc3nc4cc(OC(F)F)ccn4n3)C2)nc1 [Example 133] | 7.8 nM | 400 nM | 86800 ng·h/mL | 5 h | 5.8 h | 11000 ng/mL | 2 h
N#Cc1nccc2c1CN(c1ccc(N[C@H]3CC[C@H](Nc4nc5cc(C(F)(F)F)ccn5n4)C3)nc1)C2=O [Example 76, 1-carbonyl-2-(6-(((1S,3S)-3-((7-(trifluoromethyl)-[1,2,4]triazolo[1,5-a]pyridin-2-yl)amino)cyclopentyl)amino)pyridin-3-yl)-2,3-dihydro-1H-pyrrolo[3,4-c]pyridine-4-carbonitrile] | 13.9 nM | 4800 nM |  |  |  |  | 
